Measurements reported in patent publication US20090018118A1, “HETEROCYCLIC COMPOUNDS” (priority 2005, published 2009).
Where a name gives a salt, the structure may show the parent alone. Read-outs that look alike come from different tables or passages of the source.

Tested on: cholesterol biosynthesis in HepG2 cells
Test: Metabolic labeling of HepG2 cells with [3H]acetate; radio-HPLC sterol profile (inhibition of cholesterol biosynthesis)
Assay type: cell-based, human
Conditions: for activity at 10 µM: Homo sapiens, 24 h, Table I, sterol level normalized to normal medium (1.00), mean of 4 experiments; for activity at 10 µM / FF-MAS / cholesterol / desmosterol / lanosterol / lathosterol / zymosterol+7-dehydrocholesterol: 10 μM compound; for activity at 10 µM / FF-MAS / cholesterol / desmosterol / lanosterol / lathosterol / zymosterol+7-dehydrocholesterol / all sterol levels (in words): HepG2; for FF-MAS / cholesterol / desmosterol / lanosterol / lathosterol / zymosterol+7-dehydrocholesterol: Table II (arranged by sterol profile), normalized to normal medium (1.00); for all sterol levels (in words): relative to normal medium (unity)
Description: In accordance with the aims of the invention, the effect of the novel compounds on inhibition of cholesterol biosynthesis is assessed. An ex vivo method of metabolic labeling of immortal human hepatocytes is employed. The radioactively labeled early precursor of cholesterol [3H]acetate is added to cells with or without addition of an active new compound.
An ex vivo method of metabolic labeling of immortal human hepatocytes is employed. The radioactively labeled early precursor of cholesterol [3H]acetate is added to cells with or without addition of an active compound.
Cell culture incubation with potential inhibitors of cholesterol biosynthesis and statins Human hepatoma cell line (HepG2-ATCC No. HB-8065) is split in the recommended ratio (1:2-3) into 75 cm^2 cell flasks using two flasks per experimental condition. Cells are incubated at 37° C. with 5% CO2 in Dulbeco's modified Eagle medium (DMEM high (Sigma)) containing 5% calf serum (Sigma) and 1% L-glutamine (Sigma). After 24-hours-culturing in the growth medium, the medium is replaced with the one supplemented with 10 μM concentration of a LK compound, potential inhibitor of cholesterol biosynthesis. 10 μM solution of atorvastatin, inhibitor of HMG-CoA reductase, serves as a positive control.
After 24 hours the growth medium is changed and [^3H]acetate (NEN™ Life Science Products) added in a concentration of 40 μCi per ml of the medium (400 μCi per flask). After 4 hours cells are harvested using 2 ml of trypsin (Sigma) and the cell pellet is resuspended in 1 ml of distilled water. Cells are homogenized using the freeze and thaw method. From cell homogenate sterols are extracted and protein concentration determined using the Bio-Rad reagent.
Homogenates are transferred into 4 ml glass vial and sterols are extracted in 3 ml of extraction solution (75% n-heptane: 25% isopropanol (vol./vol.)) with ergosterol as an internal standard. For better extraction 100 μl of 0.3M NaH2PO4 (pH=1.0) is added. Closed vials are vigorously shaken (1800 rpm) for 2 hours. After extraction procedure vials are centrifuged (2000 g, 10 min) and the organic phase is transferred to fresh conical glass tubes. Extraction procedure is repeated using 1 ml of extraction solution for 15 min. Organic phases are pooled. Primary extracts are dried in vacuum centrifuge, redissolved in 3 ml of n-heptane, and incubated for 10 min at room temperature with mild shaking. After centrifugation (10 min, 2000 g) extracts are transferred into fresh glass tubes and stored in dark and cold.
The organic phase is dried, reconstituted in mobile phase for reversed phase HPLC separation and loaded onto a-HPLC column, Prism-RPN, 5 μm, 250×4,6 mm running in 100% acetonitrile at 1.00 ml/min at 40° C. temperature. Scintillation liquid is added after UV detection at 30 ml/h, at room temperature, to evaluate tritium labeled sterols on a radio detector.
Sterols are determined by comparing the eluted peaks with runs of commercial standards of lanosterol, ergosterol, desmosterol, zymosterol, 7-dehydrocholesterol, lathosterol and cholesterol or laboratory standards (FF-MAS-4,4-Dimethylcholesta-8(9),14,24-triene-3β-ol- and T-MAS-4,4-Dimethylcholesta8(9),24,diene-3,6-ol, Laboratory of Reproductive Biology, The Juliane Marie Center for Children, Women and Reproduction, University Hospital of Copenhagen, DK-2100 Copenhagen, Denmark). Results were normalized on ergosterol quantity and protein concentration. Results are presented as a mean from 4 separated experiments.
The influence of a 10 μM solution of novel LK-substances on cholesterol biosynthesis in the assay on HepG2 cells is presented in Table I. Compounds are arranged according to the building blocks, three of them are 2-pyridineethanols, 2-pyridineethylpiperazines and pyridinemethylpiperazines.
Normal medium pertains to cell cultures without a compound of the invention. Its sterol levels were used for normalization. 10 μM solution of atorvastatin serves as a positive control.

[1] = read-out: zymosterol+7-dehydrocholesterol

Structure (SMILES) | activity at 10 µM (read-out: FF-MAS) | activity at 10 µM (read-out: cholesterol) | activity at 10 µM (read-out: desmosterol) | activity at 10 µM (read-out: lanosterol) | activity at 10 µM (read-out: lathosterol) | activity at 10 µM [1] | FF-MAS | cholesterol | desmosterol | lanosterol | lathosterol | zymosterol+7-dehydrocholesterol | all sterol levels (in words) (10 μM) | de novo cholesterol biosynthesis (in words) (10 μM, HepG2, radio-HPLC chromatograms)
Clc1ccc(CCN2CCN(CCc3ccccn3)CC2)cc1Cl [LK-9137, 1-(3,4-Dichlorophenethyl)-4-(2-(pyridin-2-yl)ethyl)piperazine trihydrobromide] | 142% | 6% | 22% | 63% | 60% | 141% | 1.42 | 0.06 | 0.22 | 0.63 | 0.60 | 1.41 |  | 
Clc1ccc(CCN2CCN(CCc3ccncc3)CC2)cc1Cl [LK-9135, 1-(3,4-Dichlorophenethyl)-4-(2-(pyridin-4-yl)ethyl)piperazine trihydrobromide] | 27% | 0% | 0% | 43% | 0% | 2% | 0.27 | 0.00 | 0.00 | 0.43 | 0.00 | 0.02 | reduce all sterol levels below unity | 
Fc1ccc(CCN2CCN(CCc3ccccn3)CC2)cc1F [LK-9138, 1-(3,4-Difluorophenethyl)-4-(2-(pyridin-2-yl)ethyl)piperazine trihydrobromide] | 70% | 1% | 7% | 25% | 8% | 21% | 0.70 | 0.01 | 0.07 | 0.25 | 0.08 | 0.21 | reduce all sterol levels below unity | 
OC(CN1CCN(c2ccc(F)cc2)CC1)c1cccnc1 (centres unmarked) [LK-9144, 2-(4-(4-Fluorophenyl)piperazine-1-yl)-1-(pyridine-3-yl)ethanol trihydrobromide] | 99% | 9% | 5% | 88% | 56% | 150% | 0.99 | 0.09 | 0.05 | 0.88 | 0.56 | 1.50 |  | 
c1ccc(CCN2CCN(CCc3cccnc3)CC2)cc1 [LK-9100, 1-Phenethyl-4-(2-(pyridine-3-yl)ethyl)piperazine trihydrobromide] | 241% | 0% | 0% | 83% | 30% | 74% | 2.41 | 0.00 | 0.00 | 0.83 | 0.30 | 0.74 |  | 
FC(F)(F)c1cnc(N2CCCN(CCc3ccccc3)CC2)c(Cl)c1 [LK-9115, 1-(3-Chloro-5-(trifluoromethyl)pyridine-2-yl)-4-phenethyl-1,4-diazepane trihydrobromide] | 442% | 0% | 0% | 84% | 21% | 91% | 4.42 | 0.00 | 0.00 | 0.84 | 0.21 | 0.91 |  | 
O=C(Cc1cccnc1)N1CCN(CCc2ccccc2)CC1 [LK-9101B, 1-(4-Phenethylpiperazin-1-yl)-2-(pyridine-3-yl)ethanone] | 136% | 12% | 10% | 94% | 54% | 155% | 1.36 | 0.12 | 0.10 | 0.94 | 0.54 | 1.55 |  | 
CC(C)c1c(C(=O)Nc2ccccc2)c(-c2ccccc2)c(-c2ccc(F)cc2)n1CC[C@@H](O)C[C@@H](O)CC(=O)O [atorvastatin, reference compound] | 0% | 0% | 0% | 0% | 0% | 0% | 0.00 | 0.00 | 0.00 | 0.00 | 0.00 | 0.00 |  | complete suppression of cholesterol biosynthesis as well as cholesterol precursors
c1ccc(CCN2CCN(Cc3cccnc3)CC2)cc1 [LK-9108, 1-Phenethyl-4-(pyridine-3-ylmethyl)piperazine trihydrobromide] | 310% | 0% | 0% | 110% | 74% | 140% | 3.10 | 0.00 | 0.00 | 1.10 | 0.74 | 1.40 |  | 
c1ccc(CCN2CCN(CCCc3cccnc3)CC2)cc1 [LK-9140, 1-Phenethyl-4-(3-(pyridine-3-yl)propyl)piperazine trihydrobromide] | 72% | 0% | 1% | 24% | 3% | 15% | 0.72 | 0.00 | 0.01 | 0.24 | 0.03 | 0.15 | reduce all sterol levels below unity | 
Cc1ccc(C(O)CN2CCN(CCc3ccccc3)CC2)cn1 (centres unmarked) [LK-9139, 2-(4-Phenethylpiperazine-1-yl)-1-(6-methylpyridin-3-yl)ethanol trihydrobromide] | 119% | 1% | 14% | 38% | 15% | 38% | 1.19 | 0.01 | 0.14 | 0.38 | 0.15 | 0.38 |  | 
Fc1ccc(CCN2CCN(CCc3ccncc3)CC2)cc1F [LK-9131, 1-(3,4-di-Fluorophenethyl)-4-(2-(pyridin-4-yl)ethyl)piperazine trihydrobromide] | 72% | 0% | 1% | 69% | 5% | 9% | 0.72 | 0.00 | 0.01 | 0.69 | 0.05 | 0.09 | reduce all sterol levels below unity | 
